# From article PMC9804470, “A Formylglycine‐Peptide for the Site‐Directed Identification of Phosphotyrosine‐Mimetic Fragments” (Chemistry (Weinheim an Der Bergstrasse, Germany), 2022)
# “Also recorded” adds a separate entry of the source. Like-named read-outs stand apart in the source and are kept apart here. *1 amine or outer side, *2 acyl side, *3 side chain or, on linkers, in order; H or OH if unused. [ ]: non-standard residue; d: D form. F2Pmp = N[C@@H](Cc1ccc(C(F)(F)P(=O)(O)O)cc1)C(=O)O; fGly = 2-formylglycine, O=C[C@H](N[*:1])C(=O)[*:2]; Dap = NC[C@H](N)C(=O)O
# B1: PTP1B 1-321 (protein)
# chain: MEMEKEFEQIDKSGSWAAIYQDIRHEASDFPCRVAKLPKNKNRNRYRDVSPFDHSRIKLHQEDNDYINASLIKMEEAQRSYILTQGPLPNTCGHFWEMVWEQKSRGVVMLNRVMEKGSLKCAQYWPQKEEKEMIFEDTNLKLTLISEDIKSYYTVRQLELENLTTQETREILHFHYTTWPDFGVPESPASFLNFLFKVRESGSLSPEHGPVVVHCSAGIGRSGTFCLADTCLLLMDKRKDPSSVDIKKVLLEMRKFRMGLIQTADQLRFSYLAVIEGAKFIMGDSSVQDQWKELSHEDLEPPPEHIPPPPRPPKRILEPHN
# Legend:
# [1] = biological target: T1, catalytic domain of human PTP1B (Homo sapiens, UniProt P18031); test: Enzyme activity assay of PTP1B with fluorogenic substrate DiFMUP; assay type: biochemical; conditions: for Ki: read-out: KI PTP1B
# T1 construct: catalytic domain of human PTP1B (amino acids 1–321); His7 (N, cleaved yes); made in house; host or cells: E. coli Rosetta (DE3)
# T1 sequence (P18031 1-321): B1 chain
# Experimental: Protein Expression and purification: DNA encoding the catalytic domain of human PTP1B (amino acids 1–321) was subcloned into the pQLinkH vector. The gene encoding the N‐terminal His7‐tagged protein was over‐expressed at 17 °C in E. coli Rosetta (DE3). […] The His7‐tag was cleaved with tobacco etch virus protease at 20 °C prior to the gel‐filtration step. The catalytic domain of human SHP2 (amino acids 225–541) was purified from E. coli B21 (DE3). The overexpressed protein was fused to an N‐terminal His10‐tag. Cells were harvested and resuspended in 25 mM Tris‐HCl (pH=7.5), 50 mM NaCl, 1 % (v/v) Triton X‐100, 10 % (v/v) glycerol, 1 mM DTT. After cell lysis, debris was removed by centrifugation at 12,000 rpm for 30 min. The supernatant was filtered prior to affinity purification with Ni‐NTA agarose (Qiagen). The slurry was washed with 50 mM Tris‐HCl (pH=8.0), 500 mM NaCl supplemented with 25 mM imidazole. Reasonably pure protein was eluted with 200–300 mM imidazole. The purification was completed by size‐exclusion chromatography with a Superdex 75 16/600 column (GE Healthcare) equilibrated with 20 mM HEPES‐NaOH (pH=7.5), 50 mM NaCl, 1 mM DTT.
# (§1) Enzyme activity assays of SHP2 and PTP1B: The catalytic activity of SHP2 catalytic domain and PTP1B were monitored using the fluorogenic substrate DiFMUP (6,8‐difluoro‐4‐methylumbelliferyl phosphate). Phosphatase reactions were performed at room temperature in 384‐well black plate, clear flat bottom, low flange, non‐binding surface (Corning, Cat# 3766) using a final volume of 20 μL and the following assay buffer conditions: 50 mM MOPS, pH=6.5, 200 mM NaCl, 50 μM TCEP, 0.03 % Tween‐20 (freshly added prior to each measurement). Test compounds were dissolved in DMSO or buffer at stock concentrations of 50, 20 or 10 mM and serially diluted. Enzyme (5 nM PTP1B or 2.5 nM SHP2 catalytic domain) and different concentrations of the tested compounds were incubated in buffer for 30–60 min at room temperature. Measurements were performed with a final concentration of 2.5 % DMSO unless stated otherwise at 37 °C and were performed in triplicate. Enzymatic reactions were started by adding DiFMUP (Invitrogen, cat# D6567) concentrations matching the experimentally determined KM values of the enzymes of 67 μM (PTP1B) or 72 μM (SHP2). Samples were excited at a wavelength of 360 nm and emitted fluorescence was recorded at 460 for 10 min using a microplate reader (infinite M1000 Pro, Tecan). Initial slope of fluorescence was determined in triplicate and IC50 values were calculated with GraphPad Prism 5. Determined IC50 values were converted into the corresponding KI values applying the Cheng Prusoff equation KI =IC50 /(1+[S]/KM ).
# Solubility of peptide 3 = assay type: physicochemical; conditions: in water, buffer, and DMSO; qualitative
# PTP1B [2] = biological target: T2, PTP1B (Homo sapiens, UniProt P18031); test: Dynamic ligation screening of nucleophilic fragments with formylglycine peptide 3, PTP1B; assay type: biochemical; conditions: 3 100 μM pre-incubated 5 min, fragment 200 μM, 30 min RT before DiFMUP, triplicates
# T2 construct: catalytic domain of human PTP1B (amino acids 1–321); His7 (N, cleaved yes); made in house; host or cells: E. coli Rosetta (DE3)
# T2 sequence (P18031 1-321): B1 chain
# Experimental: as §1
# (§2) Dynamic ligation screening of nucleophilic fragments with 3: Under assay conditions described above, PTP1B or SHP2 were pre‐incubated with 3 (100 μM) for 5 min. Subsequently, (200 μM) of the respective fragments were added and the resulting mixtures were incubated for 30 min at RT, prior to DiFMUP addition.
# SHP2 = biological target: T3, SHP2 (Homo sapiens, UniProt Q06124); test: Dynamic ligation screening of nucleophilic fragments with formylglycine peptide 3, SHP2; assay type: biochemical; conditions: 3 100 μM pre-incubated 5 min, fragment 200 μM, 30 min RT before DiFMUP, triplicates
# T3 construct: catalytic domain of human SHP2 (amino acids 225–541); His10 (N); made in house; host or cells: E. coli B21 (DE3)
# T3 sequence (Q06124 225-541): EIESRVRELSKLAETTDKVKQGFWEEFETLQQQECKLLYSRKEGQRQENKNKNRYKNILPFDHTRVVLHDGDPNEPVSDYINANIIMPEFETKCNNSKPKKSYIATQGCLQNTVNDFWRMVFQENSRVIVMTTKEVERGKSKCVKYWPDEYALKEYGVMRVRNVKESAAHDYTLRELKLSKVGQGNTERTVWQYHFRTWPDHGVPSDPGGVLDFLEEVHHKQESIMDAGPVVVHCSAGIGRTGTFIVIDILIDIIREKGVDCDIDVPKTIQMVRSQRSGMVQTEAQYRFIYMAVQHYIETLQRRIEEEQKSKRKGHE
# Experimental: as §1, §2
# PTP1B [3] = biological target: T2, PTP1B; test: Apparent KI values of in situ ligation products of 3 (time- and concentration-dependent assay); assay type: biochemical; conditions: for Effect of fragment ligation with 3 on inhibition curves of PTP1B: inhibition at different concentrations, with and without 3 / fragment (Figure 5C, D)
# Experimental: as §1
# Subsequently, over the course of 60 mins (every 15 min), 2 equivalents of fragment F1 were added to each of the different concentrations of 3 at RT, prior to DiFMUP addition.
# Subsequently, fragment F2 was added at three different concentrations (1 equiv, 2 equiv, and 4 equiv) and the resulting mixtures were incubated for 30 min at RT, prior to DiFMUP addition.
# [4] = biological target: T4, catalytic domain of human SHP2 (Homo sapiens, UniProt Q06124); test: Enzyme activity assay of SHP2 catalytic domain with fluorogenic substrate DiFMUP; assay type: biochemical; conditions: hydrazine fragments alone, DiFMUP assay; Supporting Table 1
# T4 construct: catalytic domain of human SHP2 (amino acids 225–541); His10 (N); made in house; host or cells: E. coli B21 (DE3)
# T4 sequence (Q06124 225-541): T3 sequence (Q06124 225-541)
# Experimental: Enzyme activity assays of SHP2 and PTP1B: The catalytic activity of SHP2 catalytic domain and PTP1B were monitored using the fluorogenic substrate DiFMUP (6,8‐difluoro‐4‐methylumbelliferyl phosphate). Phosphatase reactions were performed at room temperature in 384‐well black plate, clear flat bottom, low flange, non‐binding surface (Corning, Cat# 3766) using a final volume of 20 μL and the following assay buffer conditions: 50 mM MOPS, pH=6.5, 200 mM NaCl, 50 μM TCEP, 0.03 % Tween‐20 (freshly added prior to each measurement). Test compounds were dissolved in DMSO or buffer at stock concentrations of 50, 20 or 10 mM and serially diluted. Enzyme (5 nM PTP1B or 2.5 nM SHP2 catalytic domain) and different concentrations of the tested compounds were incubated in buffer for 30–60 min at room temperature. […] Enzymatic reactions were started by adding DiFMUP (Invitrogen, cat# D6567) concentrations matching the experimentally determined KM values of the enzymes of 67 μM (PTP1B) or 72 μM (SHP2). Samples were excited at a wavelength of 360 nm and emitted fluorescence was recorded at 460 for 10 min using a microplate reader (infinite M1000 Pro, Tecan). Initial slope of fluorescence was determined in triplicate and IC50 values were calculated with GraphPad Prism 5. Determined IC50 values were converted into the corresponding KI values applying the Cheng Prusoff equation KI =IC50 /(1+[S]/KM ).
# [5] = system: HGF‐induced tyrosine phosphorylation of ERK 1/2 in HeLa cells; test: Western blot of p-ERK in HGF-stimulated HeLa cells; assay type: cell-based; conditions: 1 h treatment, Western blot, DMSO control
# Experimental: Cellular experiments: HeLa cells were cultivated in DMEM buffer with 10 % FCS in 75 cm^2 cell culture flasks at 37 °C, 5 % CO2. At confluency of about 75 %, cells were seeded in a density of 250,000 cells/mL in 6‐well plates and incubated for 24 h. Subsequently, medium was removed and replaced by DMEM buffer with 0.1 % BSA (1 mL per well) and incubated for another 16 h. Hepatocyte growth factor (HGF, 20 ng/well) and test compounds in different final concentrations (1 μL, in DMSO) were added. Control wells received the same amount of DMSO (final concentration 0.1 %) or no addition. Plates were incubated for 1 h, then washed with cold PBS and shaken with lysis buffer (mPer reagent ThermoScientific # 78501 with 1 mM NaF, 2 mM Na3VO4, 25× protease inhibitor) for 5 min. Cell lysates were transferred to Eppendorf cups and centrifuged at 4 °C with 10,000 g for 10 min. […] The blot was incubated with anti‐phospo‐ERK as primary antibody (Cell Signaling # 9106, dilution 1 : 2000 in TBS‐Tween/ 2 % BSA) overnight at 4 °C, washed 3×5 min with TBS‐Tween, and incubated with anti‐mouse IgG‐hrp as secondary antibody (Santa Cruz # sc2031, 1 : 6000 in TBS‐ Tween/ 2 % BSA, RT, 1.5 h). The blot was again washed 3×5 min with TBS‐Tween and imaged with the ECL system (ThermoScientific # 34080) at Syngene PXi Imager. From the same lysis sample, under the same conditions, ERK 1/2 and β‐tubulin were blotted. For β‐tubulin, the antibody incubation time was adjusted to 2 h at RT.
# SHP2 signaling = conditions: cited from earlier work
# Description: (§3) Our next goal was to validate the three phosphotyrosine mimetics F1, F2, and F4 identified by fragment ligation screening as substructures of heterocyclic and cell‐penetrating SHP2‐inhibitors. The potent SHP2‐specific inhibitor GS‐493 was selected as a reference compound. […] In combination with a kinase inhibitor, GS‐493 ...
# mammary gland tumors = conditions: endogeneous cancer model; cited from earlier work
# Description: as §3
# pancreas cancer = conditions: in combination with a kinase inhibitor; cited from earlier work
# Description: as §3
# peptide 16 = biological target: T5, peptide 16 (Homo sapiens, UniProt P00533, not fully specified (residue 5); also: formylglycine reductively aminated with aryl amine F4, place not in chain); test: DiFMUP enzyme inhibition assay
# T5 chain: Ac-DADEYL-NH2
# peptide 18 = biological target: T6, peptide 18 (Homo sapiens, UniProt P00533); test: DiFMUP enzyme inhibition assay
# T6 chain: Ac-DADE[Dap](4‑trifluoromethylsulfonylamido‑phenyl)L-NH2
# [6] = biological target: T7, peptide 2 Ac-DADE(PDFM-F)L-NH2 (Homo sapiens, UniProt P00533); test: DiFMUP enzyme inhibition assay
# T7 chain: Ac-DADE[F2Pmp]L-NH2
# formylglycine peptide 3 = biological target: T8, formylglycine peptide 3 (Homo sapiens, UniProt P00533); test: DiFMUP enzyme inhibition assay
# T8 chain: Ac-DADE[fGly]L-NH2
# peptide 17 = biological target: T9, peptide 17 (Homo sapiens, UniProt P00533, not fully specified (residue 5); also: reduced Knoevenagel product of formylglycine with barbituric acid, place not in chain); test: DiFMUP enzyme inhibition assay
# T9 chain: Ac-DADEYL-NH2
# peptide 15 = biological target: T10, peptide 15 (Homo sapiens, UniProt P00533, not fully specified (residue 5); also: formylglycine reductively aminated with 4-amino-phenyl-acetic acid F1, place not in chain); test: DiFMUP enzyme inhibition assay
# T10 chain: Ac-DADEYL-NH2
molecule,measurement,setting,value
"CC(=O)N[C@@H](CC(=O)O)C(=O)N[C@@H](C)C(=O)N[C@@H](CC(=O)O)C(=O)N[C@@H](CCC(=O)O)C(=O)NC(C=O)C(=O)N[C@@H](CC(C)C)C(N)=O (stereo partly shown) [Compound 3, N‐Acetyl‐L‐aspartyl‐L‐alaninyl‐L‐aspartyl‐L‐glutamyl‐2‐formylglycyl‐L‐leucinyl‐amide]",Ki,[1]; SD,484 ± 30 µM
same,Solubility,Solubility of peptide 3,highly soluble
"Nc1ccc(CC(=O)O)cc1 [Compound F1, 4‐amino‐phenyl‐acetic acid]",Enhancement of inhibition of PTP1B by fragment in combination with peptide 3 (fragment ligation assay),PTP1B [2],over‐additive inhibition; also recorded: super‐additive inhibition
same,Enhancement of inhibition of SHP2 by fragment in combination with peptide 3 (fragment ligation assay),SHP2,over‐additive inhibition; also recorded: super‐additive inhibition
"Nc1ccc(NS(=O)(=O)C(F)(F)F)cc1 [Compound F2, N‐(4‐aminophenyl)‐trifluoromethyl sulfonamide]",Enhancement of inhibition of PTP1B by fragment in combination with peptide 3 (fragment ligation assay),PTP1B [2],over‐additive inhibition; also recorded: pronounced activity; also recorded: super‐additive inhibition
same,Enhancement of inhibition of SHP2 by fragment in combination with peptide 3 (fragment ligation assay),SHP2,over‐additive inhibition; also recorded: super‐additive inhibition
same,Ki,"PTP1B [3]; PTP1B, ligation product of F2 with 3, read-out: apparent KI of fragment ligation product with 3 (legend of Figure 5B)",17 µM
"NNc1ccc(S(=O)(=O)O)cc1 [Compound F3, 4‐hydrazo‐phenylsulfonic acid]",IC50,"[1]; hydrazine fragments alone, DiFMUP assay, Supporting Table 1",34 µM
same,Ki,[1],17 µM
same,IC50,[4],> 250 µM
same,Effect of fragment ligation with 3 on inhibition curves of PTP1B,PTP1B [3],did not enforce inhibition of PTP1B further
"Nc1ccc(OCC(=O)O)cc1 [Compound F4, 4‐amino‐phenoxyacetic acid]",Enhancement of inhibition of PTP1B by fragment in combination with peptide 3 (fragment ligation assay),PTP1B [2],over‐additive inhibition; also recorded: super‐additive inhibition
same,Enhancement of inhibition of SHP2 by fragment in combination with peptide 3 (fragment ligation assay),SHP2,over‐additive inhibition; also recorded: super‐additive inhibition
"Nc1ccc(S(F)(F)(F)(F)F)cc1 [Compound F7, 4‐amino‐phenyl‐pentafluorosulfate]",Enhancement of inhibition of PTP1B by fragment in combination with peptide 3 (fragment ligation assay),PTP1B [2],inactive
same,Effect of fragment ligation with 3 on inhibition curves of PTP1B,PTP1B [3],identical inhibition curves
O=C1/C(=N\Nc2ccc(S(=O)(=O)O)cc2)C(c2ccc([N+](=O)[O-])cc2)=NN1c1ccc([N+](=O)[O-])cc1 [GS‐493],Effect on HGF‐induced tyrosine phosphorylation of ERK 1/2,[5],decreased
same,Block of SHP2 signaling in cancer cells and animal models,SHP2 signaling,able to block SHP2 signaling
same,Effect on development of mammary gland tumors,mammary gland tumors,able to block the development of mammary gland tumors
same,Effect on pancreas cancer,pancreas cancer,able to suppress pancreas cancer
B1,Ki,peptide 16,213 µM
same,Ki,peptide 18,202 µM
same,Ki,[6],1400 nM
same,Ki,formylglycine peptide 3,484 µM
same,Ki,peptide 17,123 µM
same,Ki,peptide 15,138 µM
